In patent publication US20240374606A1, “SUBSTITUTED PYRAZINE-2-CARBOXAMIDES AS HPK1 INHIBITORS FOR THE TREATMENT OF CANCER” (ASTRAZENECA AB, priority 2021, published 2024):
pEC50: −log10 of the molar value. Where a name gives a salt, the structure may show the parent alone.

Legend:
Format in all cases: cell-based
human CD3+ T cells = experiment: T cell assay (IL2 in supernatant, anti-CD3/anti-CD28 stimulation); details: for pEC50: T-cell, 4 hours anti-CD3/anti-CD28, read-out: IL-2 EC50
Procedure: Cryo-preserved human CD3+ T cells are recovered in warm T cell media overnight. […] T cells are then left in a humidified incubator at 37° C. for 1 hour. […] Anti-CD28 antibody in T cell media is also added to the cells by Bravo liquid handler at 5 ug/mL or 1 μg/mL in a donor dependent manner. T cells are then incubated in a humidified incubator at 37° C. for 4 hours. […] IL2 is detected using a IL2 MultiCyt® QBeads® kit on an iQue Screener flow cytometer (Sartorius). Briefly, capture beads are diluted by 50× in the supplied capture bead diluent. […] Using a Bravo liquid handler, 10 ul cell culture supernatant is transferred to the v-bottom plate with diluted capture beads. The plate is then sealed in foil and incubate at room temperature on a plate shaker set to 900 rpm for 1 hour. At the end of incubation, 10 μL per well of the supplied detection reagent is added to the wells using a ThermoFisher multichannel pipette. The plate is then sealed in foil and incubate again at room temperature on a plate shaker set to 900 rpm for 2 hours before detection by iQue Screener. iQue Screener flow cytometer uses pre-configured analysis template supplied with the IL2 MultiCyt® QBeads® kit to detect IL2 in each sample wells.

pSLP76 [1] = experiment: Flow pSLP76
pSLP76 [2] = experiment: WB pSLP76

Structure (SMILES)	Max IL-2 conc (human CD3+ T cells)	pEC50 (human CD3+ T cells)	pEC50 (pSLP76 [1])	pEC50 (pSLP76 [2])
CNc1nc(Nc2ccc(CN3C[C@H]4C[C@@H]3CO4)cc2F)c(C(N)=O)nc1-c1cncc2c1ncn2C [Example 146, 3-[2-Fluoro-4-[[(1R,4R)-2-oxa-5-azabicyclo[2.2.1]heptan-5-yl]methyl]anilino]-5-(methylamino)-6-(3-methylimidazo[4,5-c]pyridin-7-yl)pyrazine-2-carboxamide]	0.37 µM	7.64	7.19	
CNc1nc(Nc2ccc(CN3CC4(COC4)C3)cc2Cl)c(C(N)=O)nc1-c1cncc2c1ncn2C [Example 148, 3-[2-Chloro-4-(2-oxa-6-azaspiro[3.3]heptan-6-ylmethyl)anilino]-5-(methylamino)-6-(3-methylimidazo[4,5-c]pyridin-7-yl)pyrazine-2-carboxamide formate salt]	3.33 µM	6.49	5.97	
CNc1nc(Nc2cn(C3CCN(C)CC3)nc2C)c(C(N)=O)nc1-c1cccc2c1ncn2C [Example 206, 5-(Methylamino)-6-(1-methylbenzimidazol-4-yl)-3-[[3-methyl-1-(1-methyl-4-piperidyl)pyrazol-4-yl]amino]pyrazine-2-carboxamide formate salt]	1.11 µM	7.04	6.36	6.49
CNc1nc(Nc2cn(C(C)(C)C#N)nc2C)c(C(N)=O)nc1-c1cncc2c1ncn2C [Example 211, 3-[[1-(1-Cyano-1-methyl-ethyl)-3-methyl-pyrazol-4-yl]amino]-5-(methylamino)-6-(3-methylimidazo[4,5-c]pyridin-7-yl)pyrazine-2-carboxamide]	3.33 µM	6.56		6.47
Cc1nn(CC(F)(F)F)cc1Nc1nc(C2CC2)c(-c2cncc3c2ncn3C)nc1C(N)=O [Example 213, 5-Cyclopropyl-6-(3-methylimidazo[4,5-c]pyridin-7-yl)-3-[[3-methyl-1-(2,2,2-trifluoroethyl)pyrazol-4-yl]amino]pyrazine-2-carboxamide]		7.28	7.30	
Cc1nn(C2COC2)cc1Nc1nc(C2CC2)c(-c2cncc3c2ncn3C)nc1C(N)=O [Example 224, 5-Cyclopropyl-6-(3-methylimidazo[4,5-c]pyridin-7-yl)-3-[[3-methyl-1-(oxetan-3-yl)pyrazol-4-yl]amino]pyrazine-2-carboxamide]	3.33 µM	6.92		
